Like-named read-outs stand apart in the source and are kept apart here.
What was measured:
[1] = system: P. falciparum male gametocytes; test: P. falciparum Dual Gamete Formation Assay (PfDGFA), male readout (exflagellation); format: cell-based, Plasmodium falciparum NF54; conditions: for Selectivity Ratio M: HepG2 Tox50 versus male IC50; for % inhibition male (individual replicates) R3: replicate R3; for IC50: PfDGFA, 24 h incubation with gametocytes before induction, exflagellation readout, read-out: Male IC50; for HitlevelM: number of replicates with >50% inhibition in the male readout
How it was run: (§1)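 Mature NF54 gametocytes (day 14) were incubated with compound for 24 h at 37°C under 1% O2/3% CO2, then triggered with xanthurenic acid ookinete medium plus Cy3-anti-Pfs25. Exflagellation was imaged by brightfield; after a further 24 h at 28°C, Pfs25-positive female gametes were imaged by fluorescence and counted by automated image analysis.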

[2] = system: P. falciparum female gametocytes; test: P. falciparum Dual Gamete Formation Assay (PfDGFA), female readout (Pfs25-positive female gametes); format: cell-based, Plasmodium falciparum NF54; conditions: for Selectivity ratio F: HepG2 Tox50 versus female IC50; for IC50: PfDGFA, 24 h incubation with gametocytes before induction, female gamete readout, read-out: Female IC50; for HitlevelF: number of replicates with >50% inhibition in the female readout
How it was run: as §1

HepG2 cells = test: HepG2 cytotoxicity counter-screen; conditions: cytotoxic activity against HepG2 cells
[3] = PfDGFA at 2µM, 24h preincubation with gametocytes, average of replicates
[4] = PfDGFA at 2µM, 24h preincubation with gametocytes, replicate R1
[5] = PfDGFA at 2µM, 24h preincubation with gametocytes
[6] = PfDGFA at 2µM, 24h preincubation with gametocytes, replicate R4
[7] = PfDGFA at 2µM, 24h preincubation with gametocytes, replicate R3
[8] = 2µM, 24h preincubation with gametocytes prior to induction of gametogenesis, average of replicates
[9] = 2µM, 24h preincubation with gametocytes prior to induction of gametogenesis, replicate R1
[10] = 2µM, 24h preincubation with gametocytes prior to induction of gametogenesis, replicate R4
[11] = 2µM, 24h preincubation with gametocytes, average of replicates
[12] = 2µM, 24h preincubation with gametocytes, replicate R1
[13] = 2µM, 24h preincubation with gametocytes
[14] = 2µM, 24h preincubation with gametocytes, replicate R4
[15] = 2µM, 24h preincubation with gametocytes, replicate R3

| SMILES | IC50 [1] | Selectivity Ratio M [1] | Average inhibition male (%) [1, 3] | % inhibition male (individual replicates) R1 [1, 4] | % inhibition male (individual replicates) R3 [1, 5] | % inhibition male (individual replicates) R4 [1, 6] | HitlevelM ([1]; 2µM) | Selectivity ratio F [2] | Average inhibition female (%) [2, 3] | % inhibition female (individual replicates) R1 [2, 4] | % inhibition female (individual replicates) R3 [2, 7] | % inhibition female (individual replicates) R4 [2, 6] | IC50 [2] | HitlevelF ([2]; 2µM) | Tox50 (HepG2 cells) | Average inhibition male (%) [1, 11] | % inhibition male (individual replicates) R1 [1, 12] | % inhibition male (individual replicates) R4 [1, 14] | Average inhibition female (%) [2, 11] | % inhibition female (individual replicates) R1 [2, 12] | further results |
| --- | --- | --- | --- | --- | --- | --- | --- | --- | --- | --- | --- | --- | --- | --- | --- | --- | --- | --- | --- | --- | --- |
| CCn1c(-c2nonc2N)nc2c(-c3ccccc3)ncc(OCCCNCCCN3CCOCC3)c21.O=C(O)C(F)(F)F [TCMDC-135858] |  | 11.73 |  |  |  |  | 3 | 2.48 |  |  |  |  |  | 0 | 16.12 µM |  |  |  |  |  | inhibition at 2 µM ([1]; Plasmodium falciparum, PfDGFA at 2µM, 24h preincubation with gametocytes, average of replicates, read-out: Average inhibition male (%)): 85.1%; inhibition at 2 µM ([1]; Plasmodium falciparum, PfDGFA at 2µM, 24h preincubation with gametocytes, replicate R1, read-out: % inhibition male (individual replicates) R1): 80.4%; inhibition at 2 µM ([1]; Plasmodium falciparum, PfDGFA at 2µM, 24h preincubation with gametocytes, replicate R2, read-out: % inhibition male (individual replicates) R2): 88.6%; inhibition at 2 µM ([1]; Plasmodium falciparum, PfDGFA at 2µM, 24h preincubation with gametocytes, replicate R4, read-out: % inhibition male (individual replicates) R4): 86.5%; IC50 ([1]; Plasmodium falciparum): 1370 nM; inhibition at 2 µM ([2]; Plasmodium falciparum, PfDGFA at 2µM, 24h preincubation with gametocytes, average of replicates, read-out: Average inhibition female (%)): 23%; inhibition at 2 µM ([2]; Plasmodium falciparum, PfDGFA at 2µM, 24h preincubation with gametocytes, replicate R1, read-out: % inhibition female (individual replicates) R1): 22.7%; inhibition at 2 µM ([2]; Plasmodium falciparum, PfDGFA at 2µM, 24h preincubation with gametocytes, replicate R2, read-out: % inhibition female (individual replicates) R2): 28.7%; inhibition at 2 µM ([2]; Plasmodium falciparum, PfDGFA at 2µM, 24h preincubation with gametocytes, replicate R3, read-out: % inhibition female (individual replicates) R3): 18.7%; inhibition at 2 µM ([2]; Plasmodium falciparum, PfDGFA at 2µM, 24h preincubation with gametocytes, replicate R4, read-out: % inhibition female (individual replicates) R4): 21.9%; IC50 ([2]; Plasmodium falciparum): 6490 nM |
| CS(=O)(=O)O.FC(F)(F)COc1c(CCNCCCCNCCc2ccc3ccccc3c2OCC(F)(F)F)ccc2ccccc12 [TCMDC-137169] | 810 nM | 3.23 |  |  |  |  |  | 2.09 |  |  |  |  | 1260 nM |  | 2.63 µM | 91.7% | 101.1% | 99.1% | 87.0% | 87.1% | % inhibition male (individual replicates) R3 [1, 13]: 96.8%; % inhibition female (individual replicates) R3 [2, 15]: 97.3%; % inhibition female (individual replicates) R4 [2, 14]: 102.2% |
| CCCCOc1ccc(CNCCCCCCNCc2ccc(OCCCC)c3ccccc23)c2ccccc12.CS(=O)(=O)O [TCMDC-137281] | 550 nM | 2.64 | 88.9% | 95.9% | 90.2% | 93.5% | 4 | 2.64 | 94.7% | 94.0% | 97.9% | 90.5% | 550 nM | 4 | 1.45 µM |  |  |  |  |  |  |
| CS(=O)(=O)O.FC(F)(F)COc1ccc(CCNCCCCNCCc2ccc(OCC(F)(F)F)c3ccccc23)c2ccccc12 [TCMDC-137282] | 510 nM | 4.68 |  |  |  |  |  | 1.73 |  |  |  |  | 1380 nM |  | 2.39 µM | 98.5% | 98.3% | 97.4% | 56.0% | 58.1% | % inhibition female (individual replicates) R3 [2, 15]: 59.1%; % inhibition female (individual replicates) R4 [2, 14]: 54.8% |
| COc1ccc2c(CNCCCCCCNCc3c(OC)ccc4cc(OC)ccc34)c(OC)ccc2c1.CS(=O)(=O)O [TCMDC-137300] | 1810 nM | 2.01 |  |  |  |  |  | 0.75 |  |  |  |  | 4850 nM |  | 3.63 µM | 90.0% | 98.2% | 96.8% | 77.0% | 80.6% | % inhibition male (individual replicates) R3 [1, 13]: 95.7%; % inhibition female (individual replicates) R3 [2, 15]: 93.8%; % inhibition female (individual replicates) R4 [2, 14]: 84.0% |
| CS(=O)(=O)O.FC(F)(F)COc1ccc2ccccc2c1CCNCCCCNCCc1c(OCC(F)(F)F)ccc2ccccc12 [TCMDC-137317] | 1520 nM | 0.53 | 88.2% | 92.7% | 68.3% | 96.2% | 4 | 0.26 | 40.6% | 30.1% | 13.1% | 36.4% | 3050 nM | 1 | 0.8 µM |  |  |  |  |  |  |

Continued, in another order:

| IC50 [1] | SMILES | Selectivity Ratio M [1] | Average inhibition male (%) [1, 3] | % inhibition male (individual replicates) R1 [1, 4] | % inhibition male (individual replicates) R3 [1, 5] | % inhibition male (individual replicates) R4 [1, 6] | HitlevelM ([1]; 2µM) | Selectivity ratio F [2] | Average inhibition female (%) [2, 3] | % inhibition female (individual replicates) R1 [2, 4] | % inhibition female (individual replicates) R3 [2, 7] | % inhibition female (individual replicates) R4 [2, 6] | IC50 [2] | HitlevelF ([2]; 2µM) | Tox50 (HepG2 cells) | Average inhibition male (%) [1, 11] | % inhibition male (individual replicates) R1 [1, 12] | % inhibition male (individual replicates) R4 [1, 14] | Average inhibition female (%) [2, 11] | % inhibition female (individual replicates) R1 [2, 12] | further results |
| --- | --- | --- | --- | --- | --- | --- | --- | --- | --- | --- | --- | --- | --- | --- | --- | --- | --- | --- | --- | --- | --- |
| 1980 nM | COc1cc(NC(=O)c2sc(-c3ccc(Cl)cc3)cc2NC(=O)c2ccncc2)ccc1OCCN1CCCC1 [TCMDC-135398] | 3.15 | 74.1% | 92.1% | 87.5% | 101.9% | 3 | 2.54 | 76.4% | 76.9% | 72.6% | 86.6% | 2460 nM | 4 | 6.24 µM |  |  |  |  |  |  |
| 390 nM | O=C(Nc1cccc(-c2nn3ncccc3c2-c2ccnc(Nc3cccc(-c4cnco4)c3)n2)c1)c1c(F)cccc1F [TCMDC-135550] | 4.7 |  |  |  |  |  | 0.18 |  |  |  |  |  |  | 1.85 µM |  |  |  |  |  | Average inhibition male (%) [1, 8]: 55.8%; % inhibition male (individual replicates) R1 [1, 9]: 81.6%; % inhibition male (individual replicates) R3 ([1]; 2µM, 24h preincubation with gametocytes prior to induction of gametogenesis): 54.6%; % inhibition male (individual replicates) R4 [1, 10]: 6.2%; HitlevelM ([1]; 2µM, 24h preincubation): 3; Average inhibition female (%) [2, 8]: -4.1%; % inhibition female (individual replicates) R1 [2, 9]: -3.8%; % inhibition female (individual replicates) R3 ([2]; 2µM, 24h preincubation with gametocytes prior to induction of gametogenesis, replicate R3): -14.6%; % inhibition female (individual replicates) R4 [2, 10]: 0.16%; HitlevelF ([2]; 2µM, 24h preincubation): 0 |
| 270 nM | COc1cc(Nc2nccc(-c3c(-c4cccc(NC(=O)c5c(F)cccc5F)c4)nn4ncccc34)n2)cc(OC)c1OC [TCMDC-135684] | 4.28 |  |  |  |  |  | 0.12 |  |  |  |  |  |  | 1.17 µM | 97.0% | 96.5% | 98.2% | 9.6% | 8.4% | % inhibition male (individual replicates) R3 [1, 13]: 98.0%; % inhibition female (individual replicates) R3 [2, 15]: 15.7%; % inhibition female (individual replicates) R4 [2, 14]: 19.8% |
| 1300 nM | CCN(CC)CCOc1ccc(C(O)(C#CC(O)(c2ccc(C)cc2)c2ccc(OCCN(CC)CC)cc2)c2ccc(C)cc2)cc1 (centres unmarked) [TCMDC-137198] | 2.02 | 80.0% | 79.9% | 84.8% | 81.8% | 4 | 0.55 | 31.2% | 31.1% | 8.3% | 48.8% | 4730 nM | 0 | 2.63 µM |  |  |  |  |  |  |
| 610 nM | CCN(CC)CCOc1ccc(C(O)(C#CC(O)(c2ccc(Br)cc2)c2ccc(OCCN(CC)CC)cc2)c2ccc(Br)cc2)cc1 (centres unmarked) [TCMDC-137199] | 3.23 | 78.4% | 76.2% | 84.3% | 81.8% | 4 | 1.56 | 19.7% | 20.5% | 18.5% | 25.4% | 1270 nM | 0 | 1.99 µM |  |  |  |  |  |  |
| 1540 nM | CCN(CC)CCOc1ccc(C(O)(C#CC(O)(c2ccc(OCCN(CC)CC)cc2)c2ccc([N+](=O)[O-])cc2)c2ccc([N+](=O)[O-])cc2)cc1 (centres unmarked) [TCMDC-137201] | 2.26 | 85.9% | 82.3% | 94.6% | 93.0% | 4 | 1.17 | 55.9% | 46.7% | 67.0% | 64.5% | 2990 nM | 2 | 3.49 µM |  |  |  |  |  |  |
